Measurements published in patent US20100210561A1, “USE OF PEPTIDE AS A THERAPEUTIC AGENT” (priority 2007, published 2010).
Where no end group is shown, it is not given here. [ ]: non-standard residue; d: D form. The star is where a group is joined. tBu = CC(C)(C)*

Assays:
HIV-1IIIB = experiment: HIV-1 antiviral assay in CEM-SS cells (MTS readout); conditions: positive controls
[1] = system: hepatitis B virus (HBV) ayw strain; experiment: HBV assay in HepG2-2.2.15 cells (secreted HBV DNA, TaqMan PCR); format: cell-based; conditions: 10 micrograms per ml, six days, HBV DNA in supernatant
Interferon-γ (IFN-γ) = experiment: Th1/Th2 cytokine profiling assay: IFN-γ; format: cell-based, Balb/c mice; conditions: Ovalbumin-restimulated spleen cells, 72 hours
HUVEC = experiment: Endothelial tube formation assay; format: cell-based, human; conditions: 10 micrograms per ml, 20 hours
Procedure: The endothelial tube formation assay is based on the ability of endothelial cells to form three-dimensional capillary-like tubular structures when cultured on a gel of basement membrane extract. […] Positive control was vehicle only. The endothelial cells were allowed to form tubes foe 20 hours and were then examined under an inverted fluorescent microscope. Duplicate wells for each treatment were photographed and quantitatevily analyzed for an average tubule length using image analysis software ImageProPlus. Raw data were expressed as average tubule lengths in pixels±standard deviation. Statistic p values were computed using the Student's t-test.

Interleukin-2 (IL-2) = experiment: Th1/Th2 cytokine profiling assay: IL-2; format: cell-based, Balb/c mice; conditions: Ovalbumin-restimulated spleen cells, 72 hours
HCMV strain AD169 = experiment: HCMV plaque formation assay in MRC-5 cells; format: cell-based, human cytomegalovirus; conditions: 10 micrograms per ml, 7-10 days
[2] = system: Tumor Necrosis Factor-α (TNF-α); experiment: Th1/Th2 cytokine profiling assay: TNF-α; format: cell-based, Balb/c mice; conditions: Ovalbumin-restimulated spleen cells, 72 hours
Interleukin-4 (IL-4) = experiment: Th1/Th2 cytokine profiling assay: IL-4; format: cell-based, Balb/c mice; conditions: Ovalbumin-restimulated spleen cells, 72 hours

Molecule | antiviral activity of positive control compounds (HIV-1IIIB) | inhibition of HBV replication as compared to the virus control infection [1] [%] | IFNγ spleen cells; TH1 response (% of control) (Interferon-γ (IFN-γ)) | induction of the production of IFN-γ in murine spleen cells (Interferon-γ (IFN-γ)) | inhibition of the tube formation of human endothelial cells (HUVEC) [%] | IL-2 spleen cells (% of control) (Interleukin-2 (IL-2)) | induction of the production of IL-2 in murine spleen cells (Interleukin-2 (IL-2)) | inhibition of HCMV plaque formation as compared to the virus control experiment (HCMV strain AD169) [%] | TNF-a spleen cells; TH1 response (% of control) [2] | induction of the production of TNF-alpha in murine spleen cells [2] [%] | IL-4 spleen cells; TH2 response (% of control) (Interleukin-4 (IL-4)) | decrease of the production of IL-4 in murine spleen cells (Interleukin-4 (IL-4)) [%]
Cc1cn([C@H]2C[C@H](N=[N+]=[N-])[C@@H](CO)O2)c(=O)[nH]c1=O [AZT] | expected levels of antiviral activity |  |  |  |  |  |  |  |  |  |  | 
CC(C)(C)NC(=O)[C@@H]1CN(Cc2cccnc2)CCN1C[C@@H](O)C[C@@H](Cc1ccccc1)C(=O)N[C@H]1c2ccccc2C[C@H]1O [indinavir] | expected levels of antiviral activity |  |  |  |  |  |  |  |  |  |  | 
Y[dC](tBu)GFLT(tBu)-OH [Peptide 1] |  | 24.2 | 107.6 % of control | did not significantly change | 4 | 115.0 % of control | did not significantly change | 46.5 | 123.7 % of control | 23.7 | 65.0 % of control | 35.0
